This is an account of results in patent publication US20100260691A1, “Aqueous compositions containing a hydrophobic material” (priority 2006, published 2010).

The nature of data set [1]: Visual clarity of aqueous concentrate and dilutions. It counts as physicochemical. As to conditions: for appearance of dilutions with water: dilution ratios as stated in each example; for appearance / dissolution of the aqueous concentrate: undiluted composition as prepared. From the text:
FIG. 2 summarizes a method that can be used for optimization. Once the components are identified, optimization may be performed by preparing several mixtures of the components in different ratios and observing the phase behavior. Plot the compositions producing clear systems for concentrate and dilutions and identify regions in the triangular composition space. For a fixed amount of the hydrophobic material or active ingredient, vary the ratios of the surfactant and polymer in water. Alternately, vary the concentration of the hydrophobic material or active ingredient, polymer and surfactant in different ratio and make up to 100% in water and plot the compositions providing clear systems for the concentrate and for dilutions.

Data set [2] can be described thus: Critical micelle concentration by surface tension. The note with it: in water. The data set is classed as physicochemical. From the text: Suitable polymer is selected by first determining the surface tension concentration profile of the surfactant and evaluating the CMC. This is done by preparing standard solutions of the surfactant in water at different concentration and dilutions and measuring surface tension of the solutions and plotting the data as shown in FIG. 1. Surface tension may be measured using a typical Tensiometer [DuNuoy Tensiometer, Surface Tensiomat, Fisher with a platinum ring with a mean circumference of 6 cm, and a ring/wire radius ratio of 53.8. As an example: starting with 1% solution of a typical surfactant like SDS, serial dilutions are made by diluting appropriate amounts of the 1% stock solution and diluting to 0.5%, 0.2%, 0.1% and 0.05, 0.02, 0.01, 0.005, 0.002, by adding appropriate amounts of de-ionized water to a weighed quantity of the stock solution. FIG. 1 is a plot of concentration in moles per liter of the SDS and surface tension at 25° C.

A short description of data set [3]: Solubility / solubilization of Triclosan in water and SDS solutions. As to conditions: SDS alone, no PVP. It counts as physicochemical. On the procedure: This concentrate was serially diluted at 3/10, 2.5/10, 2/10, 1.5/10, 1/10, 0.8/10, 0.6/10, 0.4/10 with water. […] Minimum amount of SDS required to solubilize 0.075%-0.09% Triclosan was ˜0.4-0.5% range SDS. This corresponds to about two-three times the CMC for SDS, which was determined to be about 0.17%.

For data set [4] the following is noted: cited from earlier work.
Data set [5] is described as follows: Particle size by Dynamic Light Scattering. It counts as physicochemical. The note with it: active in SDS/PVP K-30 aqueous systems and dilutions. From the text: The hydrophobic material is present in the composition as an emulsion or a dispersion. The particle size of the hydrophobic material in the composition typically falls within the range of from about 5 to 1000 nm, more particularly from about 5 to 500 nm, still more particularly from about 10 to 100 nm and in accordance with certain embodiments from about 10 to 30 nm. Particle size refers to average particle radius and can be determined using dynamic light scattering techniques and equipment known to those of skill in the art. The compositions in accordance with certain aspects of the invention are visually clear due primarily to the small particle size of the hydrophobic material. Optical clarity can be measured using a turbidimeter or nephelometer.

Turning to `CCOC(=O)c1ccc(O)cc1` [ethylparaben], in data set [1], the “appearance of dilutions with water” value is reported as “clear solutions” and the “appearance / dissolution of the aqueous concentrate” value was “clear solutions”.

As for `CCCCCCCCCCCCOS(=O)(=O)[O-].[Na+]` [SDS, sodium dodecylsulfate], the CMC entry in data set [2] is “about 0.17%”.

For `Oc1cc(Cl)ccc1Oc1ccc(Cl)cc1Cl` [Triclosan], in data set [3], the “Minimum amount of SDS required to solubilize 0.075%-0.09% Triclosan” value was 0.4-0.5 % SDS, the “Minimum amount of SDS to solubilize 0.3% Triclosan in water” value was ~2 % SDS and the “level of SDS required to solubilize 3% Triclosan” value was 25%. In data set [4], the solubility in water is 10 ppm. In addition, in data set [5], the “particle size (radius)” value was 10-30 nm.

For `COC(=O)c1ccc(O)cc1` [methylparaben], in data set [1], the “appearance of dilutions with water” value is “clear solutions” and the “appearance / dissolution of the aqueous concentrate” value is reported as “clear solutions”.
